Laboratory results published in ChEMBL document CHEMBL1201862, “PubChem BioAssay data set” (2004).
Values belong to the compound of their own block, whether it stands above or below them. Activity calls are given as the source filed them.

Assays:
[1] = target: T1, Sphingosine 1-phosphate receptor 4 (Homo sapiens, UniProt O95977); test: Fluorescence dose response cell-based high throughput screening assay for antagonists of the Sphingosine 1-Phosphate Receptor 4 (S1P4). [Related pubchem assays: 1524 (Confirmation in triplicates.), 1510 (Primary screen.)]; type: functional
T1 sequence (O95977 whole entry): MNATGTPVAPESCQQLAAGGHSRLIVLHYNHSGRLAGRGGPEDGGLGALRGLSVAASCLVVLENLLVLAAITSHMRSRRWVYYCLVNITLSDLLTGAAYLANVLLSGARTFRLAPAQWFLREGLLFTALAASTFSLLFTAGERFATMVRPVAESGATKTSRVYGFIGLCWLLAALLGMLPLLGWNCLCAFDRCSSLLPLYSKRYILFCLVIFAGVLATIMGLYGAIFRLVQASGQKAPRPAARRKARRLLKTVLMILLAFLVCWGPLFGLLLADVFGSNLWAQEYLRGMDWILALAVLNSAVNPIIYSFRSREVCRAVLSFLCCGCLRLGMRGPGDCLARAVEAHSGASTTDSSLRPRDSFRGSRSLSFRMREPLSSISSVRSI

[2] = target: Sphingosine 1-phosphate receptor 1 (Homo sapiens, UniProt P21453); type: functional;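 further: Tango beta-arrestin reporter U2OS cells stimulated with S1P near its EC80; inhibitor potency meaning antagonism of receptor activation by the natural agonist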
Exodeoxyribonuclease V = target: T2, Exodeoxyribonuclease V (Escherichia coli (strain K12), UniProt P04993+P07648+P08394); test: E. coli RecBCD inhibitors, dose response, counter-screen for AddAB inhibitor project, absorbance, V66 E. coli, mutant T4 phage (AID 492957); type: functional, cell-based, Escherichia coli str. K-12 substr. MG1655
T2 sequence (P04993 whole entry): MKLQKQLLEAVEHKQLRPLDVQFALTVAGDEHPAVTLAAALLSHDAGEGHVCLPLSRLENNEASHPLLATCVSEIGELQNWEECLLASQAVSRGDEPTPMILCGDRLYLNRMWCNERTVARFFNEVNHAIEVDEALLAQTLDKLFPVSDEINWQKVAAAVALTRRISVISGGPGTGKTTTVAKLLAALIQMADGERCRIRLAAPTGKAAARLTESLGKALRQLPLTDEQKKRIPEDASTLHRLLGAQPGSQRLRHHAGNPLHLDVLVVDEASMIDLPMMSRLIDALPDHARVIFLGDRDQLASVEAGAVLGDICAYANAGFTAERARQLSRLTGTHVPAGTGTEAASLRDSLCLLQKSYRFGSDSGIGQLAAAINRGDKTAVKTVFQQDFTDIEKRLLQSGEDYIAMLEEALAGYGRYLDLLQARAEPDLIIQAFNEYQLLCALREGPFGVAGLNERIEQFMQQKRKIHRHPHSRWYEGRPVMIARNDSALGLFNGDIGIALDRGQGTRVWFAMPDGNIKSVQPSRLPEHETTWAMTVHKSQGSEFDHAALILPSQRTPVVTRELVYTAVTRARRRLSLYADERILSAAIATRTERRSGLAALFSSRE
T2 sequence (P07648 whole entry): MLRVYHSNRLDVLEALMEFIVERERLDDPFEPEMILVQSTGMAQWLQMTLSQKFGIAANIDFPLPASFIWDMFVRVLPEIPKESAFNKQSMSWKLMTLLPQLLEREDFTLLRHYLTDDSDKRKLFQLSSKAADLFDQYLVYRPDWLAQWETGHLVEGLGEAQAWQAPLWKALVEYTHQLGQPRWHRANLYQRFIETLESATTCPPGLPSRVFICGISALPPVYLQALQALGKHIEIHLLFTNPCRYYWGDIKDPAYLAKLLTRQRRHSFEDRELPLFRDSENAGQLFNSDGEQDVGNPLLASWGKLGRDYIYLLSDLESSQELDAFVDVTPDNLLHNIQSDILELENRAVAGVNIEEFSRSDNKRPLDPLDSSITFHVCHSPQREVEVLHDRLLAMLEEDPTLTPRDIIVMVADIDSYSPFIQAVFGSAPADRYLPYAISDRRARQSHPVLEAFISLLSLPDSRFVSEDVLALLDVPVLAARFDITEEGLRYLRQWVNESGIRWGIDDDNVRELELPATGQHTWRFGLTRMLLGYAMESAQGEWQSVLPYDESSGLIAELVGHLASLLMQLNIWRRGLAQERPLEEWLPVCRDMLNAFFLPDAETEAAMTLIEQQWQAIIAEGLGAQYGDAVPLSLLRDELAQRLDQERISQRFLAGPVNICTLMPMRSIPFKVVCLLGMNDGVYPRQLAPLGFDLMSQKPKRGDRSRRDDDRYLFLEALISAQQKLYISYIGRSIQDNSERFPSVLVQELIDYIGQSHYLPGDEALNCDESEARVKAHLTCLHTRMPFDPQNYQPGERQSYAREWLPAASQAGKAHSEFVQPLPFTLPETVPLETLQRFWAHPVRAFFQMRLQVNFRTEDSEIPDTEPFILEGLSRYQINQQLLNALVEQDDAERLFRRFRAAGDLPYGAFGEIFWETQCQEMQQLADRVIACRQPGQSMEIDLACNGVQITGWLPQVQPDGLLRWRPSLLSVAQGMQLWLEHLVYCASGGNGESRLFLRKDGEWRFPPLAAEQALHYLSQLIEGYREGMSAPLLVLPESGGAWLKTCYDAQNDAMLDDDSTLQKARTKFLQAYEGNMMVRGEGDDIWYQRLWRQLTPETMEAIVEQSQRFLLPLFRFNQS
T2 sequence (P08394 whole entry): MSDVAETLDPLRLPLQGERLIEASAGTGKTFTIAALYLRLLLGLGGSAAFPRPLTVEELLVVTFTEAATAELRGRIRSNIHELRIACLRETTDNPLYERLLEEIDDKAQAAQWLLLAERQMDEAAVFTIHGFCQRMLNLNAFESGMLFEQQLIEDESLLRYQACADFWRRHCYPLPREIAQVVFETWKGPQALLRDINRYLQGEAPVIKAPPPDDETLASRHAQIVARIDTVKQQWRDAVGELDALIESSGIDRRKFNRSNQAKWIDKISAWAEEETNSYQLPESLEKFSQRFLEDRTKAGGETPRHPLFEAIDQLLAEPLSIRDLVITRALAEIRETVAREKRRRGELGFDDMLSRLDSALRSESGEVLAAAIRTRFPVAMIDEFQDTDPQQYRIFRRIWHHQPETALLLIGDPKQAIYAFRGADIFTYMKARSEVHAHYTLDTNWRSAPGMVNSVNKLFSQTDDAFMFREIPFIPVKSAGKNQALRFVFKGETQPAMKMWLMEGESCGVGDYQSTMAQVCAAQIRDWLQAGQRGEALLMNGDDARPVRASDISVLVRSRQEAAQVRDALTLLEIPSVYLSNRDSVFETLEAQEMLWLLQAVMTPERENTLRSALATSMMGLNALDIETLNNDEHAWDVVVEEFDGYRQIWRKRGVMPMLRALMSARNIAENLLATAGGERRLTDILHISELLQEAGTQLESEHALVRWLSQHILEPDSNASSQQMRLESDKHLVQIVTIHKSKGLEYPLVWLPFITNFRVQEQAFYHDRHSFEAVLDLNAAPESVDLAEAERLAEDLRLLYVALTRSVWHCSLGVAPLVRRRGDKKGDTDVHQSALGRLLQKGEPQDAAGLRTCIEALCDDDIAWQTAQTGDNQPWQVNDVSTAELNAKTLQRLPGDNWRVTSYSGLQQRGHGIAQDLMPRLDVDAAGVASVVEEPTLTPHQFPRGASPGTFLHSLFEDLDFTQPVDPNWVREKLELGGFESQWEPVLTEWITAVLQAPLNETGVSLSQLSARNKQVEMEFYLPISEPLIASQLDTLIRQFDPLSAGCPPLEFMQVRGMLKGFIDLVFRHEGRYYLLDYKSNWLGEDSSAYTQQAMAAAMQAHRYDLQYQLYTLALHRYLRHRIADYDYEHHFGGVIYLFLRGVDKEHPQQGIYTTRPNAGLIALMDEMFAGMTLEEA

Keap1/Nrf2 = Keap1/Nrf2 (Homo sapiens, UniProt Q14145); test: Keap1-Nrf2 protein-protein interaction inhibitors, dose response, biochemical, fluorescence polarization, cherry-picked samples (AID 588683)
Beta Lactamase [3] = target: T3, Beta Lactamase (Pseudomonas aeruginosa, UniProt Q932Y6); test: beta-lactamase reporter inhibitor potency, dose response, artefact control for TLR9-MyD88 binding inhibitor project, BLA reporter cells, FRET fluorescence (AID 588341); type: cell-based;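 further: cell based assay in CHO-K1 cells stably expressing beta-lactamase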
Beta Lactamase [4] = target: T3, Beta Lactamase; test: beta-lactamase reporter inhibitor potency, dose response, artefact control for NOD2-RIPK2 interaction inhibitor project, BLA reporter cells, FRET fluorescence (AID 651552); type: functional, cell-based
HeLa = test: HeLa cell cytotoxicity, dose response, cytotoxicity control, 24 h, cherry-picked samples (AID 504726); type: functional, cell-based; settings: Homo sapiens;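 further: potency for cytotoxicity as loss of luminescence signal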
[5] = target: T4, Alkaline phosphatase, tissue-nonspecific isozyme (Homo sapiens, UniProt P05186)
T4 sequence (P05186 whole entry): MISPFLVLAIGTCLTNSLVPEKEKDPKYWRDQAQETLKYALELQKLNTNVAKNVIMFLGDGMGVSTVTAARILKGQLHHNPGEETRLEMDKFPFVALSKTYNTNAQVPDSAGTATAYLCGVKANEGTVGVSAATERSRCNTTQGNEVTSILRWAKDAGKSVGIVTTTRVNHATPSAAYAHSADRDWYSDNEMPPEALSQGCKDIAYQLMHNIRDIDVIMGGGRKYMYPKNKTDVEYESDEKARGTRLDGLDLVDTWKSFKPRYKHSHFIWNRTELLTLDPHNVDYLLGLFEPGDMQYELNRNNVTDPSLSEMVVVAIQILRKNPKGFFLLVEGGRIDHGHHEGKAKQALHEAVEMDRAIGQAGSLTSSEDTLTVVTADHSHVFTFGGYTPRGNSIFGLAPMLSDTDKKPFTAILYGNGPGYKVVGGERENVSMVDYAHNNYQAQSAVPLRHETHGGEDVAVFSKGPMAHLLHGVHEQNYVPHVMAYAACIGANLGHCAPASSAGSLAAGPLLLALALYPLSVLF

[6] = human group III sPLA2 inhibitors, dose response, biochemical, QFRET, IC50 (AID 743457);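 further: green fluorescence rise as the enzyme cleaves BODIPY PC-A2 in liposomes; potency for inhibition of the enzyme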
[7] = inhibitors of Bluetongue virus cytopathic effect, confirmation, arbovirus, BSR cells (AID 1250); type: functional;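 further: protection from viral cytopathic effect measured as cell viability by ATP luminescence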
[8] = target: FAD-linked sulfhydryl oxidase ALR (Homo sapiens, UniProt P55789); test: inhibitors of human ALR sulfhydryl oxidase, dose response, biochemical, H2O2 detection, luminescence, cherry-pick (AID 493248)
Vero = test: Vero E6 cell cytotoxicity, SAR follow-up, cytotoxicity control for West Nile virus antiviral project, synthesized analogs (AID 2244); type: functional; settings: Chlorocebus sabaeus
[9] = Counterscreen for IDE inhibitors: Luminescence-based cell-based high throughput dose response assay to identify compounds that are cytotoxic to HEK cells. [Related pubchem assays: 434962 (Primary screen (IDE inhibitors in singlicate)), 449730 (Counterscreen (Cytotoxicity in triplicate)), 435028 (Confirmation (IDE inhibitors in triplicate)) …; type: functional; settings: HEK293
Insulin-degrading enzyme = Insulin-degrading enzyme (Homo sapiens, UniProt P14735); test: Dose Response: Fluorescence polarization-based cell-based high throughput dose response assay for inhibitors of insulin-degrading enzyme (IDE). [Related pubchem assays: 434962 (Primary screen (IDE inhibitors in singlicate)), 449730 (Counterscreen (Cytotoxicity in triplicate)), 435028 (Confirmation (IDE inhibitors in triplicate)), 434984 (Summary …; type: functional
Sequence of Insulin-degrading enzyme (P14735 whole entry): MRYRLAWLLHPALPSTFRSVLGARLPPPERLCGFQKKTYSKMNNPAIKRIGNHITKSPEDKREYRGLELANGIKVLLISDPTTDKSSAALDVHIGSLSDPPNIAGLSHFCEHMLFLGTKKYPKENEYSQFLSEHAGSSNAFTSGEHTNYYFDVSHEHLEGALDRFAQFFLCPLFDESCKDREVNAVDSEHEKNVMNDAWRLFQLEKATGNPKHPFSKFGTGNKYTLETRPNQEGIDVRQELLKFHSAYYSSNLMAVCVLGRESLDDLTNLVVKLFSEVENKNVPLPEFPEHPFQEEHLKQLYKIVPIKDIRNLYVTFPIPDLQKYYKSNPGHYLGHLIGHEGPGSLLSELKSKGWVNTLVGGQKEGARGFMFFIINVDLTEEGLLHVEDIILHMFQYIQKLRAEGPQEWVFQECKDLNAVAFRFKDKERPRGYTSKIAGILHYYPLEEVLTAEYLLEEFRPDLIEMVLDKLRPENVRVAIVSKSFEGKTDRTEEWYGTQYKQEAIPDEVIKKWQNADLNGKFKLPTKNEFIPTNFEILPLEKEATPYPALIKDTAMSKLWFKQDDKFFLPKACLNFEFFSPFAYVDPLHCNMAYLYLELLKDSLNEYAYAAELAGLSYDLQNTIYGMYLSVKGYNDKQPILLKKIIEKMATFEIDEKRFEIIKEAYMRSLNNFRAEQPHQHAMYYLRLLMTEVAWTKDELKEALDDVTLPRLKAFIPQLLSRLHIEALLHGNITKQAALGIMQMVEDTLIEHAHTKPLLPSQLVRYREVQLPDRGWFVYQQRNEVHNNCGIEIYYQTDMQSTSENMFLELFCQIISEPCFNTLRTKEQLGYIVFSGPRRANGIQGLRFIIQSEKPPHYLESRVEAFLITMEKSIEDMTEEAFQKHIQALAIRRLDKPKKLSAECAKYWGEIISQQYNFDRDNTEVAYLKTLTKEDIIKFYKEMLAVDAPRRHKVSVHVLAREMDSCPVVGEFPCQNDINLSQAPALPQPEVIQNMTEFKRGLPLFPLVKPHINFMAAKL

T3 sequence (Q932Y6 whole entry): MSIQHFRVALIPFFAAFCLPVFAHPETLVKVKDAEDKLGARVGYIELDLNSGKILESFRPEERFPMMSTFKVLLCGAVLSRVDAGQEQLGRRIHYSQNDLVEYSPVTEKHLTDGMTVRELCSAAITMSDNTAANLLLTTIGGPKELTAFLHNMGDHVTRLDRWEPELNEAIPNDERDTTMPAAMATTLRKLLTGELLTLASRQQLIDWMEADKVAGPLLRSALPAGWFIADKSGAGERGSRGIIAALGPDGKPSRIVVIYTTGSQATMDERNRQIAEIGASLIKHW
Sequence of FAD-linked sulfhydryl oxidase ALR (P55789 whole entry): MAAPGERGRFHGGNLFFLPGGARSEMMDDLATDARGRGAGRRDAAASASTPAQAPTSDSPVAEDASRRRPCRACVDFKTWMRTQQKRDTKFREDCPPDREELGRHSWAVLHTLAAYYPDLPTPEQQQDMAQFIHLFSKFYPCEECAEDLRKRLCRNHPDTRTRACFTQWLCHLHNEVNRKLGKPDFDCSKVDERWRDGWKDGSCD
Sequence of Keap1/Nrf2 (Q16236 whole entry): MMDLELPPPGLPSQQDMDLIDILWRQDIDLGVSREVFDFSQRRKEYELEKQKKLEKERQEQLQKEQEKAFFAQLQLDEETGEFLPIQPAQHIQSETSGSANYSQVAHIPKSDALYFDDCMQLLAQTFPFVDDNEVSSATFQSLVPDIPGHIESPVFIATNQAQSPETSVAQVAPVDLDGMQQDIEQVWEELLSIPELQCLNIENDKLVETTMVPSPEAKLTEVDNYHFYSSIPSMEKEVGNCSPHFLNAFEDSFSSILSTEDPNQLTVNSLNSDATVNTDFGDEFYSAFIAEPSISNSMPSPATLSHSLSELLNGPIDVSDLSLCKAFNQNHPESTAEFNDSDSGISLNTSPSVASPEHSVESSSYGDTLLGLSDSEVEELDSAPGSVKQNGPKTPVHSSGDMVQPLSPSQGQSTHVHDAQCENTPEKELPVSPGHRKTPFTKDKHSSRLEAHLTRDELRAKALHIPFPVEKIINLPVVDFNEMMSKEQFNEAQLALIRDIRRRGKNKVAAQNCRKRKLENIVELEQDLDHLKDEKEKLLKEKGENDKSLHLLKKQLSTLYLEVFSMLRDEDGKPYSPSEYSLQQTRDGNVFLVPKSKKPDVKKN
Sequence of Keap1/Nrf2 (Q14145 whole entry): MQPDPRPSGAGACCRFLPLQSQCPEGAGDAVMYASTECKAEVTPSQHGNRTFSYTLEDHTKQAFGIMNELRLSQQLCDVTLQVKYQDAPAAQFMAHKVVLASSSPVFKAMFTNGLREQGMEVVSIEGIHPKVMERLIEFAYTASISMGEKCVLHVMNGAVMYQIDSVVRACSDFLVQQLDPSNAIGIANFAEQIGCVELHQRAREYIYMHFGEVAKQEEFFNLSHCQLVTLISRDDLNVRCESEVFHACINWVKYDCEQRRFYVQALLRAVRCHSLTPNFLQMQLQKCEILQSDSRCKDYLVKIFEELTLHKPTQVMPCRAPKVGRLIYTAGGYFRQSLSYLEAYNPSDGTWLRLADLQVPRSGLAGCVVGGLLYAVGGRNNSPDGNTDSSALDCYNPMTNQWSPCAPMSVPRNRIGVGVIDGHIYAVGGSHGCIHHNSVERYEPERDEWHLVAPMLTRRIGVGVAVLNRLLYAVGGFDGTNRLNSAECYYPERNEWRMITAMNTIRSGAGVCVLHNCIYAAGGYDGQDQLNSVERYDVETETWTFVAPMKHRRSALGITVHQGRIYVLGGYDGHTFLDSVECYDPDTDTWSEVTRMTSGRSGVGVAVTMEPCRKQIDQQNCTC
Sequence of Sphingosine 1-phosphate receptor 1 (P21453 whole entry): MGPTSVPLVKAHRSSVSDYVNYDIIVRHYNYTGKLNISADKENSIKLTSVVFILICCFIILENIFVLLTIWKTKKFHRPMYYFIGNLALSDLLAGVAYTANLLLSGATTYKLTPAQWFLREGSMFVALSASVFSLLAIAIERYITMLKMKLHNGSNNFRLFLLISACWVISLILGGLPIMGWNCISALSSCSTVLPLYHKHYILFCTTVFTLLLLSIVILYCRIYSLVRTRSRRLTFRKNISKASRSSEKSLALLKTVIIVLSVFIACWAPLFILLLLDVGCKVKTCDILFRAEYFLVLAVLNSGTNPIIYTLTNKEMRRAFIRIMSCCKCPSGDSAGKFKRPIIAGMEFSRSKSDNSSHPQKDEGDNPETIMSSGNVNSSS

SMILES: C=CCn1c(Sc2ncc([N+](=O)[O-])s2)n[nH]c1=O
IC50 [1]: 2.63 µM (active) | IC50 [2]: 18.1 µM (not active) | IC50 (Exodeoxyribonuclease V): 77.2 µM (inactive) | AC50 (Keap1/Nrf2): > 52 µM (inactive) | IC50 (Beta Lactamase [3]): > 49.8 µM (inactive) | IC50 (Beta Lactamase [4]): 42 µM (inactive)

SMILES: NNc1nc2sc3c(c2c(=O)n1C1CCCCC1)CCN(Cc1ccccc1)C3
AC50 (HeLa): 46 µM (active)

EC50 [5]: 61 µM (not active) | IC50 [6]: > 122 µM (inactive)
SMILES: Cc1ccc(NC(S)=NNC(=O)c2nn(C)cc2Cl)cc1

IC50 [7]: 23.5 µM (active) | AC50 [8]: 0.84 µM (active)
SMILES: CCN(CC)c1ccc(NC(=O)c2c(OC)cccc2OC)c(C)c1

SMILES: COc1ccc(-c2csc(NC(=O)c3ccccc3Cl)n2)cc1
CC50 (Vero): > 40 µM (active)

SMILES: O=C(N/N=C/c1cccnc1)c1cccc(NC(=O)c2cccc(Br)c2)c1
IC50 [9]: 53.6 µM (not active) | IC50 (Insulin-degrading enzyme): 21.9 µM (not active)
